Assays:
Type in all cases: in vitro ADME
CYP1A2 = molecular target: T1, CYP1A2 (Homo sapiens, UniProt P05177); test: Cytochrome P450 inhibition assay (cocktail method, human liver microsomes), phenacetin O-deethylation
T1 construct: pooled human liver microsomes (HLMs, XTreme 200, XenoTech, Lenexa, KS, USA); tissue XenoTech XTreme 200; host or cells: pooled human liver microsomes
T1 sequence (P05177 1-516): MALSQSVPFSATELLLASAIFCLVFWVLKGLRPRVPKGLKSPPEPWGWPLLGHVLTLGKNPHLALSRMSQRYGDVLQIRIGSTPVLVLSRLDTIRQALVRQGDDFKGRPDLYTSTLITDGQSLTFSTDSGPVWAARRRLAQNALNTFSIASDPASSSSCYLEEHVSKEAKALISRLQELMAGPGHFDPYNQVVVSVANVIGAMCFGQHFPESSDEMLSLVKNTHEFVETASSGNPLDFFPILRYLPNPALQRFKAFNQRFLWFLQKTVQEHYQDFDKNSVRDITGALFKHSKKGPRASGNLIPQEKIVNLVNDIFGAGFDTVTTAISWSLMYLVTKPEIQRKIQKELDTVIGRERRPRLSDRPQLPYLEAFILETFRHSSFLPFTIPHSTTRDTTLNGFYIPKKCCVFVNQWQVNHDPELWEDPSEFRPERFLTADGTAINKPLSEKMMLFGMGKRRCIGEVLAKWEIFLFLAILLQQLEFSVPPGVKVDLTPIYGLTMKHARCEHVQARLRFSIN
Protocol: (§1) The inhibitory effects of KS15 and compound 5d on the metabolism of five cytochrome P450 (P450) probe substrates were evaluated using previous methods with slight modifications. The following P450 probe substrates were used: phenacetin (100 μM) for CYP1A2, tolbutamide (100 μM) for CYP2C9, omeprazole (20 μM) for CYP2C19, dextromethorphan (5 μM) for CYP2D6, and midazolam (5 μM) for CYP3A. Incubation mixtures containing pooled human liver microsomes (HLMs, XTreme 200, XenoTech, Lenexa, KS, USA), P450 probe substrates, and KS15 or compound 5d (final concentrations: 0, 0.5, 2, 5, 20, and 50 μM) were preincubated for 5 min at 37 °C. […] After centrifugation at 18,000× g (5 min, 4 °C), supernatant aliquots were analyzed by liquid chromatography-tandem mass spectrometry (LC-MS/MS). […]
(§2) All metabolites and IS were separated on a Kinetex C18 column (100 mm × 2.1 mm, 2.6 μm ID., Phenomenex, Torrance, CA, USA) and analyzed using an LC-MS/MS system (LCMS 8060, Shimadzu, Tokyo, Japan) equipped with an electrospray ionization (ESI) interface. […]
(§3) The EC50 values for luciferase reporter assay were calculated based on a logistic four-parametric equation using the mean values of intrinsic activation (SigmaPlot 10.0; Systat Software Inc., San Jose, CA, USA). […] Pharmacokinetic parameters were calculated using non-compartmental analysis (WinNonlin v.8.3; Pharsight, Mountain View, CA, USA). […]

CYP2C9 = molecular target: T2, CYP2C9 (Homo sapiens, UniProt P11712); test: Cytochrome P450 inhibition assay (cocktail method, human liver microsomes), tolbutamide 4-methylhydroxylation
T2 construct: pooled human liver microsomes (HLMs, XTreme 200, XenoTech, Lenexa, KS, USA); tissue XenoTech XTreme 200; host or cells: pooled human liver microsomes
T2 sequence (P11712 whole entry): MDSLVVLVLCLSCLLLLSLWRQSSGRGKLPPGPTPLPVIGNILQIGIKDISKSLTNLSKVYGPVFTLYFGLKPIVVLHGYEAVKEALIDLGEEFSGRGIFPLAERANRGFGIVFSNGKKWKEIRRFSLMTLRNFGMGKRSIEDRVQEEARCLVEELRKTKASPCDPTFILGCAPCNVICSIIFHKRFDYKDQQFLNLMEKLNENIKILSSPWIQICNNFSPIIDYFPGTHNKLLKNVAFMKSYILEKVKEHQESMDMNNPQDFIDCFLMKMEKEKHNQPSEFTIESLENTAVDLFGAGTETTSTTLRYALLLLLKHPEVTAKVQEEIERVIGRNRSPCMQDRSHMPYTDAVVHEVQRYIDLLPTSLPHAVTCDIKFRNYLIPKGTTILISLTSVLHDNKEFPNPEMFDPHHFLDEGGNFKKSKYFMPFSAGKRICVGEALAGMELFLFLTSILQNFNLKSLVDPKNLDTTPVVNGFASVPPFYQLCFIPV
Protocol: as §1, §2, §3

CYP2C19 = molecular target: T3, CYP2C19 (Homo sapiens, UniProt P33261); test: Cytochrome P450 inhibition assay (cocktail method, human liver microsomes), omeprazole hydroxylation
T3 construct: pooled human liver microsomes (HLMs, XTreme 200, XenoTech, Lenexa, KS, USA); tissue XenoTech XTreme 200; host or cells: pooled human liver microsomes
T3 sequence (P33261 whole entry): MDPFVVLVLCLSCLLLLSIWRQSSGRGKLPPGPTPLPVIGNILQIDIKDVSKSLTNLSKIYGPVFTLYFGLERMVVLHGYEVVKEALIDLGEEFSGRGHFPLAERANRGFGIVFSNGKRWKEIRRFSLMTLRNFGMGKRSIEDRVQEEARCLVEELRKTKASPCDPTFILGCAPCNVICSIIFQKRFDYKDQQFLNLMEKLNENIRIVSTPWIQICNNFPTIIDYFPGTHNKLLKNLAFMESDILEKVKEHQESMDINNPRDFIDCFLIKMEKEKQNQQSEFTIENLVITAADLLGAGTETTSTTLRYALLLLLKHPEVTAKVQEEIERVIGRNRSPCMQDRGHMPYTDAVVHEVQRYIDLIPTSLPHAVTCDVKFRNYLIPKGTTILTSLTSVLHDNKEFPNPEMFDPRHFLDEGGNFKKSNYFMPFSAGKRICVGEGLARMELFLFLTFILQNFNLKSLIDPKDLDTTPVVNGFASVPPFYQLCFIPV
Protocol: as §1, §2, §3

CYP3A = test: Cytochrome P450 inhibition assay (cocktail method, human liver microsomes), midazolam 1'-hydroxylation; details: pooled human liver microsomes, probe midazolam (5 μM)
Protocol: as §1, §2, §3

COC(=O)COc1cccc(C(C)=NOCc2ccc([N+](=O)[O-])cc2)c1 [Compound 5d, Methyl 2-(3-(1-(((4-nitrobenzyl)oxy)imino)ethyl)phenoxy)acetate]
> 50 µM: IC50 (CYP1A2) | IC50 (CYP2C9) | IC50 (CYP2C19) | IC50 at 10 min (CYP3A)
